Earlier results, collected in patent publication US20060233843A1, “Treatment of psychosis with a muscarinic m1 receptor ectopic activator” (priority 2003, published 2006).

Molecular target: T1, M1 receptor, residue 381 mutated from tyrosine to alanine (Homo sapiens, UniProt P11229, Y381A)
T1 sequence (P11229 1-460 Y381A): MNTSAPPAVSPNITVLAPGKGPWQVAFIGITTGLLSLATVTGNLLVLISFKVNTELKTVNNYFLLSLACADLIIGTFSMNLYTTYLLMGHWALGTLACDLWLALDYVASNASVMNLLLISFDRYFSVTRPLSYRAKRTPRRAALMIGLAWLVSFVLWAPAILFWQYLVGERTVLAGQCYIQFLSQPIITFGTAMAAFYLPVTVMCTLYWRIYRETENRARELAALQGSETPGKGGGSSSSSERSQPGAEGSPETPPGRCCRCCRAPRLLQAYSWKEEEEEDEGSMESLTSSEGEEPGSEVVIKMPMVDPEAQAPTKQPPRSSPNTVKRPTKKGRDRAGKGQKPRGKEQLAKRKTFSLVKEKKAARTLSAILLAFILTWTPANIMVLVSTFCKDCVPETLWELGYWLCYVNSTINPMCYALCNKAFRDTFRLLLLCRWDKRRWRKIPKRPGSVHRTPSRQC
Details: M1 receptor Y381A mutant versus wild type

SMILES	effect of mutation of residue 381 from tyrosine to alanine on pharmacology	increase of ectopic agonist potency by mutation of residue 381 from tyrosine to alanine [fold]
CCCCC1CCN(CCCC(=O)c2ccccc2C)CC1 [AC-42]	not affecting	–
Clc1ccc2c(c1)N=C(N1CCNCC1)c1ccccc1N2 [N-desmethylclozapine, Desmethylclozapine]	–	8
